Reference: patent publication US8658801B2, “Pesticides containing a bicyclic bisamide structure” (Syngenta Crop Protection, LLC, priority 2006, dated 2014)
Like-named read-outs stand apart in the source and are kept apart here.

Experiments:
[1] = tested on: Cydia pomonella (Codling Moth); test: Example B8: activity against Cydia pomonella (paraffin-coated diet cubes); assay type: in vivo; settings: 336 h, 14 days incubation at 26° C.
Method: Activity Against Cydia pomonella (Codling Moth)
Standard Cydia diet cubes (1.5 cm width) are pierced with a tooth-pick and are immersed in liquid paraffin (ca. 80° C.). After the paraffin coat has hardened, an aqueous emulsion containing 400 ppm of active ingredient is applied using a De Vilbis sprayer (25 ml, 1 bar). After the spray coating has dried, the cubes are put into plastic containers which are then populated with two freshly hatched Cydia pomonella (1st instar). The containers are then closed with a plastic cap. After 14 days incubation at 26° C. and 40-60% relative humidity, the survival rate of the caterpillars as well as their growth regulation is determined. In this test, compounds listed in Table P above show good activity. In particular compounds P.10, P.11, P.12, P.18, P.19, P.20, P.29, P.30, P.31, P.32, P.33, P.34, P.35, P.37, P.38, P.39, P.42, and P.43 show an activity of over 80% at a concentration of 400 ppm.

[2] = tested on: Myzus persicae (Green Peach Aphid); test: Example B5: activity against Myzus persicae, mixed population, feeding/residual contact, preventive (sunflower leaf discs); settings: foliar, 144 h, read-out: activity
[3] = tested on: Aphis aossypii (Cotton Aphid); test: Example B13: activity against cotton aphid, mixed population, systemic/feeding; assay type: in vivo; settings: 144 h, 6 days, roots in test solution (systemic)
From the text: Activity Against Aphis aossypii (Cotton Aphid)
(§1) (Mixed Population, Systemic/Feeding)
(§2) 6 days later, samples are checked for mortality.

[4] = tested on: Aphis craccivora (Pea Aphid); test: Example B10: activity against Aphis craccivora, mixed population, contact/feeding; assay type: in vivo; settings: 144 h, 6 days after treatment, spray (contact/feeding)
From the text: (§3) Activity Against Aphis craccivora (Pea Aphid)
(Mixed Population, Contact/Feeding)
6 days after treatment, samples are checked for mortality.

[5] = tested on: Myzus persicae (Green Peach Aphid); test: Example B6: activity against Myzus persicae, mixed population, systemic/feeding, curative (pea seedling roots); settings: 144 h, read-out: activity
[6] = tested on: Plutella xylostella (Diamond Back Moth); test: Example B3: Plutella xylostella, larvicide, feeding/residual contact, preventive (artificial diet MTP); assay type: in vivo; settings: 120 h, 5 days incubation, L2 larvae
In short: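 Artificial diet in multiwell plates treated with test solution, dried, then infested with 10–15 L2 larvae per well. After 5 days, larval mortality, antifeedant effect and growth regulation were scored.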

[7] = tested on: Diabrotica balteata (Corn Root Worm); test: Example B4: Diabrotica balteata, larvicide, feeding/residual contact, preventive; assay type: in vivo; settings: 120 h, 5 days incubation, L2 larvae
In short: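 Artificial diet treated with test solution, dried, then infested with 6-10 L2 larvae per well. Larval mortality, antifeedant effect and growth regulation checked after 5 days of incubation.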

[8] = tested on: Spodoptera littoralis (Egyptian Cotton Leafworm); test: Example B1: activity against Spodoptera littoralis, larvicide, feeding/residual contact, preventive (cotton leaf discs); assay type: in vivo; settings: foliar, 72 h, 3 days after treatment, L1 larvae
[9] = tested on: Frankliniella occidentalis (Western Flower Thrips); test: Example B9: activity against Frankliniella occidentalis (bean leaf discs or bean plants); assay type: in vivo; settings: foliar, 6 days (leaf discs) or 14 days (plants) after infestation
In short: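 Bean leaf discs on agar or whole bean plants sprayed with diluted test solutions, then infested with a mixed thrips population after drying. Population reduction versus untreated assessed 6 days (discs) or 14 days (plants) after infestation.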

[10] = tested on: Heliothis virescens (Tobacco Budworm); test: Example B2: activity against Heliothis virescens, ovo-larvicide, feeding/contact, curative; assay type: in vivo; settings: 96 h, 4 days incubation, eggs 0-24 h old
Method: Activity Against Heliothis virescens (Tobacco Budworm)
(Ovo-Larvicide, Feeding/Contact Activity, Curative)
(§4) Eggs (0-24 h old) are placed in 24-well microtiter plate on artificial diet and treated with test solutions by pipetting. After an incubation period of 4 days, samples are checked for egg mortality, larval mortality, and growth regulation.

[11] = tested on: Aphis craccivora (Pea Aphid); test: Example B11: activity against Aphis craccivora, mixed population, systemic/feeding; assay type: in vivo; settings: 144 h, 6 days, roots in test solution (systemic)
From the text: as §3, §1, §2

[12] = tested on: Plutella xylostella (Diamond Back Moth); test: Example B14: comparison with state of the art, Plutella xylostella, larvicide, feeding/residual contact, preventive; assay type: in vivo
Method: Plutella xylostella (Diamond Back Moth)
(Larvicide, Feeding/Residual Contact Activity, Preventive)
24-well microtiter plate (MTP) with artificial diet is treated with test solutions by pipetting. After drying, the MTP's are infested with larvae (L2)(10-15 per well). After an incubation period of 5 days, samples are checked for larval mortality, antifeedant and growth regulation.

[13] = tested on: Heliothis virescens; test: Example B15: comparison with state of the art, Heliothis virescens ovo-larvicide test; assay type: in vivo; settings: for inhibition at 0.8 ppm / inhibition at 3.1 ppm / inhibition at 12.5 ppm / inhibition at 50 ppm: Heliothis virescens, 96 h, read-out: Ovo-larvicidal activity (%) after 4 days
Method: Activity Against Heliothis virescens (Ovo-Larvicide Test)
as §4

[14] = tested on: Thrips tabaci (Onion Thrips); test: Example B7: activity against Thrips tabaci, mixed population, feeding/residual contact, preventive; settings: 144 h, read-out: activity
[15] = especially at 12.5, 3.1 and 0.8 ppm

Q: With CC(C)NC(=O)c1c(NC(=O)c2cc(C(F)(F)F)nn2-c2ncccc2Cl)ccc2cccnc12 [P.73, 7-{[2-(3-chloro-pyridin-2-yl)-5-trifluoromethyl-2H-pyrazole-3-carbonyl]-amino}-quinoline-8-carboxylic acid isopropylamide] as the molecule, how does the melting point read?
A: 225 to 226 °C

Q: With C#Cc1cc2cn[nH]c2c(C(=O)NC(C)C)c1NC(=O)c1cc(C(F)(F)F)nn1-c1ncccc1Cl [Example 34, 6-{[2-(3-chloro-pyridin-2-yl)-5-trifluoromethyl-2H-pyrazole-3-carbonyl]-amino}-5-ethynyl-1H-indazole-7-carboxylic acid isopropylamide] as the molecule, how does the melting point read?
A: 226 to 229 °C

Q: What does the source list for CCNC(=O)c1c(NC(=O)c2cc(C(F)(F)F)nn2-c2ncccc2Cl)c(Cl)cc2cn[nH]c12 [P.30]?
A: pest or weed control at 400 ppm [1]: > 80%; pest or weed control at 400 ppm [2]: > 80%; pest or weed control at 400 ppm [3]: > 80%; pest or weed control at 400 ppm [4]: > 80%; pest or weed control at 400 ppm [5]: > 80%; pest or weed control at 400 ppm [6]: > 80%; pest or weed control at 400 ppm [7]: > 80%; pest or weed control at 400 ppm [8]: > 80%; pest or weed control at 400 ppm [9]: > 80%; pest or weed control at 400 ppm [10]: > 80%; pest or weed control at 400 ppm [11]: > 80%

Q: For Cc1cc2ncccc2c(C(=O)NC(C)C)c1NC(=O)c1cc(C(F)(F)F)nn1-c1ncccc1Cl [P.78, 6-{[2-(3-chloro-pyridin-2-yl)-5-trifluoromethyl-2H-pyrazole-3-carbonyl]-amino}-7-methyl-quinoline-5-carboxylic acid isopropylamide], which “Death rate (%) after 5 days” value ([12]; 0.8 ppm) is on record?
A: 50%

Q: What about the “Death rate (%) after 5 days” value ([12]; 3.1 ppm) of the same molecule?
A: 100%

Q: What about the “Death rate (%) after 5 days” value ([12]; 12.5 ppm) of the same molecule?
A: 100%

Q: What about the “Death rate (%) after 5 days” value ([12]; 50 ppm) of the same molecule?
A: 100%

Q: What about the “insecticidal action compared with the compound from the state of the art (T81.3)” value [12, 15] of the same molecule?
A: substantially better insecticidal action

Q: And the pest or weed control at 400 ppm [6]?
A: > 80%

Q: What about the pest or weed control at 400 ppm [7] of the same molecule?
A: > 80%

Q: What about the inhibition at 0.8 ppm ([13]; 0.8 ppm) of the same molecule?
A: 50%

Q: And the inhibition at 3.1 ppm ([13]; 3.1 ppm)?
A: 50%

Q: What about the inhibition at 12.5 ppm ([13]; 12.5 ppm) of the same molecule?
A: 80%

Q: What about the inhibition at 50 ppm ([13]; 50 ppm) of the same molecule?
A: 80%

Q: And the “insecticidal action compared with the compound from the state of the art (T81.3)” value [13, 15]?
A: substantially better insecticidal action

Q: And the pest or weed control at 400 ppm [10]?
A: > 80%

Q: With Cc1cc2cn[nH]c2c(C(=O)NC2(C3CC3)CC2)c1NC(=O)c1cc(C(F)F)nn1-c1ncccc1Cl as the molecule, how does the melting point read?
A: 224 to 227 °C

Q: What does the source list for CC(C)NC(=O)c1c(NC(=O)c2cc(Cl)nn2-c2ncccc2Cl)c(Cl)cc2cn[nH]c12 [P.43]?
A: pest or weed control at 400 ppm [1]: > 80%; pest or weed control at 400 ppm [2]: > 80%; pest or weed control at 400 ppm [3]: > 80%; pest or weed control at 400 ppm [4]: > 80%; pest or weed control at 400 ppm [5]: > 80%; pest or weed control at 400 ppm [6]: > 80%; pest or weed control at 400 ppm [7]: > 80%; pest or weed control at 400 ppm [8]: > 80%; pest or weed control at 400 ppm [9]: > 80%; pest or weed control at 400 ppm [14]: > 80%; pest or weed control at 400 ppm [10]: > 80%; pest or weed control at 400 ppm [11]: > 80%

Q: With Cc1nc2ccccc2c(C(=O)NC(C)C)c1NC(=O)c1cc(C(F)(F)F)nn1-c1ncccc1Cl [Compound T81.3, reference compound] as the molecule, how does the “Death rate (%) after 5 days” value ([12]; 0.8 ppm) read?
A: 0%

Q: And the “Death rate (%) after 5 days” value ([12]; 3.1 ppm)?
A: 0%

Q: What about the “Death rate (%) after 5 days” value ([12]; 12.5 ppm) of the same molecule?
A: 60%

Q: What about the “Death rate (%) after 5 days” value ([12]; 50 ppm) of the same molecule?
A: 100%

Q: What about the inhibition at 0.8 ppm [13] of the same molecule?
A: 0%

Q: What about the inhibition at 3.1 ppm [13] of the same molecule?
A: 25%

Q: What about the inhibition at 12.5 ppm [13] of the same molecule?
A: 65%

Q: What about the inhibition at 50 ppm [13] of the same molecule?
A: 80%

Q: For CNC(=O)c1c(NC(=O)c2cc(C(F)(F)F)nn2-c2ncccc2Cl)ccc2ncccc12 [Example 46, 6-{[2-(3-chloro-pyridin-2-yl)-5-trifluoromethyl-2H-pyrazole-3-carbonyl]-amino}-quinoline-5-carboxylic acid methylamide], which melting point is on record?
A: 210 to 211 °C

Q: With CC(C)NC(=O)c1c(NC(=O)c2cc(Br)nn2-c2ncccc2Cl)c(Cl)cc2cn[nH]c12 [P.42] as the molecule, how does the pest or weed control at 400 ppm [1] read?
A: > 80%

Q: What about the pest or weed control at 400 ppm [2] of the same molecule?
A: > 80%

Q: What about the pest or weed control at 400 ppm [3] of the same molecule?
A: > 80%

Q: And the pest or weed control at 400 ppm [4]?
A: > 80%

Q: What about the pest or weed control at 400 ppm [5] of the same molecule?
A: > 80%

Q: And the pest or weed control at 400 ppm [6]?
A: > 80%

Q: And the pest or weed control at 400 ppm [7]?
A: > 80%

Q: What about the pest or weed control at 400 ppm [8] of the same molecule?
A: > 80%

Q: What about the pest or weed control at 400 ppm [9] of the same molecule?
A: > 80%

Q: What about the pest or weed control at 400 ppm [14] of the same molecule?
A: > 80%

Q: What about the pest or weed control at 400 ppm [10] of the same molecule?
A: > 80%

Q: What about the pest or weed control at 400 ppm [11] of the same molecule?
A: > 80%

Q: For C#Cc1cc2cn[nH]c2c(C(=O)NC2(C3CC3)CC2)c1NC(=O)c1cc(C(F)F)nn1-c1ncccc1Cl [P.81], which melting point is on record?
A: 218 to 221 °C

Q: For COc1cc(C(=O)Nc2c(Cl)cc3cn[nH]c3c2C(=O)NC2(C3CC3)CC2)n(-c2ncccc2Cl)n1 [P.47], which pest or weed control at 400 ppm [2] is on record?
A: > 80%

Q: What about the pest or weed control at 400 ppm [3] of the same molecule?
A: > 80%

Q: And the pest or weed control at 400 ppm [4]?
A: > 80%

Q: What about the pest or weed control at 400 ppm [5] of the same molecule?
A: > 80%

Q: What about the pest or weed control at 400 ppm [6] of the same molecule?
A: > 80%

Q: What about the pest or weed control at 400 ppm [7] of the same molecule?
A: > 80%

Q: What about the pest or weed control at 400 ppm [8] of the same molecule?
A: > 80%

Q: What about the pest or weed control at 400 ppm [9] of the same molecule?
A: > 80%

Q: And the pest or weed control at 400 ppm [14]?
A: > 80%

Q: And the pest or weed control at 400 ppm [10]?
A: > 80%

Q: What about the pest or weed control at 400 ppm [11] of the same molecule?
A: > 80%

Q: Which melting point does the source give for C#Cc1cc2cn[nH]c2c(C(=O)NC(C)C)c1NC(=O)c1cc(C(F)F)nn1-c1ncccc1Cl [P.80] here?
A: 233 to 236 °C
